Measurements reported in patent US20260256940A1, “MITOCHONDRIA AS A TARGETED DELIVERY PLATFORM” (cellvie AG, priority 2022, published 2026).

Tested on: heart of a pig
Conditions: in vivo
Procedure: Five milliliters of mitochondria-ssDNA suspension (ssDNA is fluorescently labeled with FAM, and the ssDNA oligo sequence 5′ to 3′ is [sequence]) in conjugation buffer (at a concentration of 1 mg/mL) were directly injected into the heart of the pig. After two hours, the pig was sacrificed, and a small piece of heart tissue where the injection had occurred was cut. The tissue was fixed using formaldehyde, and a histology cut was performed. The tissue was stained with DAPI and rhodamine phalloidin (Thermo Fisher Scientific) to visualize cell nuclei and F-actin networks, respectively. The FAM signal represents the ssDNA signal. A control experiment was prepared by directly injecting naked ssDNA.
An in vivo experiment was conducted to understand the stability of the mitochondria-ssDNA complex inside a tissue or organ after injection. Using a syringe, either the mitochondria-ssDNA complex or naked ssDNA (control) were directly injected into the heart of a pig. Two hours post-injection, the tissue was processed and fluorescently stained using DAPI and rhodamine phalloidin to stain cell nuclei and F-actins, respectively. The samples were analyzed using a fluorescence microscope to visualize nuclei, actin and the FAM-labeled ssDNA.

“naked ssDNA: FAM-labeled ssDNA, oligo sequence 5′ to 3′ GCAACAGTGAAGGAAAGCC, injected without mitochondria as control (FAM label, chemistry not fully specified; listed 3' to 5')” was tested, and the “ssDNA signal in heart tissue” value was “No ssDNA signal was observed”.
